Experimental data as given in US8865623B2, “Herbicidally active cyclic diones and derivatives thereof, processes for their preparation, compositions, and method of controlling weeds” (Syngenta Limited, priority 2009, dated 2014).

Experiments:
Assay type in all cases: in vivo
[1] = system: Avena fatua (AVEFA); assay: Post-emergence herbicidal activity, glasshouse pot test; conditions: rate 250 g/ha, evaluated after 13 days; for pest or weed control at 250 g/ha: Avena fatua, 312 h, read-out: Post-emergence activity AVEFA (100=total damage to plant; 0=no damage to plant)
How it was run: (§1)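 Plants in standard-soil pots, glasshouse at 24/16° C, 14 h photoperiod, 65% humidity. Aqueous spray (acetone/water 50:50 formulation, 0.5% Tween 20) applied pre-emergence at day 1 or post-emergence at day 8. Percent damage recorded after 13 days.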

[2] = system: Lolium perenne (LOLPE); assay: as above; conditions: rate 250 g/ha, evaluated after 13 days; for pest or weed control at 250 g/ha: Lolium perenne, 312 h, read-out: Post-emergence activity LOLPE (100=total damage to plant; 0=no damage to plant)
How it was run: as §1

[3] = system: Echinochloa crus-galli (ECHCG); assay: as above; conditions: rate 250 g/ha, evaluated after 13 days; for pest or weed control at 250 g/ha: Echinochloa crus-galli, 312 h, read-out: Post-emergence activity ECHCG (100=total damage to plant; 0=no damage to plant)
How it was run: as §1

[4] = system: Alopecurus myosuroides (ALOMY); assay: as above; conditions: rate 250 g/ha, evaluated after 13 days; for pest or weed control at 250 g/ha: Alopecurus myosuroides, 312 h, read-out: Post-emergence activity ALOMY (100=total damage to plant; 0=no damage to plant)
How it was run: as §1

[5] = system: Avena fatua (AVEFA); assay: Pre-emergence herbicidal activity, glasshouse pot test; conditions: evaluated after 13 days; for pest or weed control at 250 g/ha: Avena fatua, 312 h, Rate 250 g/ha, read-out: Pre-emergence activity AVEFA (100=total damage to plant; 0=no damage to plant)
How it was run: as §1

[6] = system: Lolium perenne (LOLPE); assay: as above; conditions: evaluated after 13 days; for pest or weed control at 250 g/ha: Lolium perenne, 312 h, Rate 250 g/ha, read-out: Pre-emergence activity LOLPE (100=total damage to plant; 0=no damage to plant)
How it was run: as §1

[7] = system: Echinochloa crus-galli (ECHCG); assay: as above; conditions: evaluated after 13 days; for pest or weed control at 250 g/ha: Echinochloa crus-galli, 312 h, Rate 250 g/ha, read-out: Pre-emergence activity ECHCG (100=total damage to plant; 0=no damage to plant)
How it was run: as §1

[8] = system: Alopecurus myosuroides (ALOMY); assay: as above; conditions: evaluated after 13 days; for pest or weed control at 250 g/ha: Alopecurus myosuroides, 312 h, Rate 250 g/ha, read-out: Pre-emergence activity ALOMY (100=total damage to plant; 0=no damage to plant)
How it was run: as §1

Compound	pest or weed control at 250 g/ha ([1]; glasshouse) [%]	pest or weed control at 250 g/ha ([2]; glasshouse) [%]	pest or weed control at 250 g/ha ([3]; glasshouse) [%]	pest or weed control at 250 g/ha ([4]; glasshouse) [%]	pest or weed control at 250 g/ha ([5]; pre-emergence spray) [%]	pest or weed control at 250 g/ha ([6]; pre-emergence spray) [%]	pest or weed control at 250 g/ha ([7]; pre-emergence spray) [%]	pest or weed control at 250 g/ha ([8]; pre-emergence spray) [%]	further results
CCc1ccc(Oc2cc(C)c(Cl)nn2)cc1C1=C(O)C(C)(C)OC(C)(C)C1=O [Example A-121]	0	20	50	10	0	0	10	10	
CCc1ccc(Oc2ccc(Cl)cc2F)cc1C1=C(O)CC(C)(C)CC1=O [Example A-30]	60	60	100	70	50	70	80	70	
CCc1ccc(Oc2ccc([N+](=O)[O-])c(C(F)(F)F)c2)cc1C1=C(O)C(C)(C)OC(C)(C)C1=O [Example A-197]	70	60	100	70	10	20	30	0	
CCc1ccc(Oc2ccc(Br)c(Cl)c2)cc1C1=C(O)C(C)(C)OC(C)(C)C1=O [Example A-10]	90	100	100	100	20	30	90	0	
CC1(C)OC(C)(C)C(O)=C(c2cc(Oc3nc4ccccc4s3)ccc2C2CC2)C1=O [Example A-365]									pest or weed control at 250 g/ha [1]: 10%; pest or weed control at 250 g/ha [2]: 100%; pest or weed control at 250 g/ha [3]: 100%; pest or weed control at 250 g/ha [4]: 100%; pest or weed control at 250 g/ha ([5]; pre-emergence): 0%; pest or weed control at 250 g/ha ([6]; pre-emergence): 90%; pest or weed control at 250 g/ha ([7]; pre-emergence): 100%; pest or weed control at 250 g/ha ([8]; pre-emergence): 80%
CCc1ccc(Oc2cnc3ccccc3n2)cc1C1=C(O)CC(C)(C)CC1=O [Example A-291]	100	100	100	100	90	100	100	70	
CCc1ccc(Oc2ccc(C(F)(F)F)c(Cl)c2)cc1C1=C(O)C(C)(C)OC(C)(C)C1=O [Example A-101]	90	100	100	100	80	90	90	60	
CCc1ccc(Oc2ccc(Cl)cc2)cc1C1=C(O)[C@@H]2CC[C@](C)(C1=O)C2(C)C (single isomer, unassigned) [Example A-96]	20	30	60	60	40	100	90	70	
CCc1ccc(Oc2nc3ccc(OC)cc3s2)cc1C1=C(O)[C@@H]2CC[C@](C)(C1=O)C2(C)C [Example A-326]	90	90	100	30	10	90	70	30	
CCc1ccc(Oc2ccc(F)cc2Cl)cc1C1=C(O)CCCC1=O [Example A-39]	0	30	70	30	0	30	40	30	
CCc1ccc(Oc2cc(F)cc(F)n2)cc1C1=C(O)C(C)(C)OC(C)(C)C1=O [Example A-156]	20	20	50	30	0	20	60	20	
COc1ccc2nc(Oc3ccc(C4CC4)c(C4=C(O)C(C)(C)OC(C)(C)C4=O)c3)sc2c1 [Example A-374]									pest or weed control at 250 g/ha [1]: 90%; pest or weed control at 250 g/ha [2]: 100%; pest or weed control at 250 g/ha [3]: 100%; pest or weed control at 250 g/ha [4]: 90%; pest or weed control at 250 g/ha ([5]; pre-emergence): 30%; pest or weed control at 250 g/ha ([6]; pre-emergence): 100%; pest or weed control at 250 g/ha ([7]; pre-emergence): 90%; pest or weed control at 250 g/ha ([8]; pre-emergence): 50%
CCCC(=O)OC1=C(c2cc(Oc3ccc(C#N)cc3F)ccc2CC)C(=O)C(C)(C)OC1(C)C [Example P-3]									AVEFA damage to plant (100=total damage to plant; 0=no damage to plant) [1]: 60; LOLPE damage to plant (100=total damage to plant; 0=no damage to plant) [2]: 90; ECHCG damage to plant (100=total damage to plant; 0=no damage to plant) [3]: 100; ALOMY damage to plant (100=total damage to plant; 0=no damage to plant) [4]: 90; AVEFA damage to plant (100=total damage to plant; 0=no damage to plant) ([5]; pre-emergence, rate 250 g/ha): 70; LOLPE damage to plant (100=total damage to plant; 0=no damage to plant) ([6]; pre-emergence, rate 250 g/ha): 100; ECHCG damage to plant (100=total damage to plant; 0=no damage to plant) ([7]; pre-emergence, rate 250 g/ha): 100; ALOMY damage to plant (100=total damage to plant; 0=no damage to plant) ([8]; pre-emergence, rate 250 g/ha): 70
CC1(C)OC(C)(C)C(O)=C(c2cc(Oc3cc(C#N)ccc3F)ccc2C2CC2)C1=O [Example A-358]									pest or weed control at 250 g/ha [1]: 60%; pest or weed control at 250 g/ha [2]: 60%; pest or weed control at 250 g/ha [3]: 100%; pest or weed control at 250 g/ha [4]: 90%; pest or weed control at 250 g/ha ([5]; pre-emergence): 0%; pest or weed control at 250 g/ha ([6]; pre-emergence): 90%; pest or weed control at 250 g/ha ([7]; pre-emergence): 90%; pest or weed control at 250 g/ha ([8]; pre-emergence): 60%
CCc1ccc(Oc2ccc(C#N)cc2F)cc1C1=C(O)CC2(CCOCC2)CC1=O [Example A-270]	90	70	100	90	60	90	100	90	
CCc1ccc(Oc2ccc(Cl)cc2Cl)cc1C1=C(O)CCC(C)(C)C1=O [Example A-111]	0	50	40	10	30	40	40	10	
CCc1ccc(Oc2ncc(Cl)cc2Cl)cc1C1=C(O)[C@@H]2CC[C@](C)(C1=O)C2(C)C [Example A-318]	90	100	100	90	90	100	100	90	
CCc1ccc(Oc2ccc3cc(Br)ccc3n2)cc1C1=C(O)C(C)(C)OC(C)(C)C1=O [Example A-256]	80	90	90	90	20	80	80	50	
